≈ marks a conversion by molar mass, not a printed value. Marks after values point to notes of the source that are not given here.
How the values were obtained:
[1] = test system: adults with nonalcoholic steatohepatitis (NASH) and fibrosis stages F2-F3; details: phase II clinical results; cited from earlier work
[2] = Determination of compound solubility in PBS buffer (LC-MS/MS); type: physicochemical; details: for solubility at 2 h: 25 °C, kinetic from dmso stock; for Solubility in PBS buffer solution compared with silymarin (in words): pH 4
Description: The test compounds were 7, 67 and 85, respectively; the control compound was silymarin, purchased from Shanghai Dibai Biotechnology Co., Ltd., with the batch number HH06. Both the test compounds and the control compound were prepared into 10 mM stock solutions using DMSO. Phosphate buffered saline (PBS), with pH of 4.0 and 7.4, was used to test the solubility of the test compounds.
Treatment of test compound and control compound: 30 μL of test compound or control compound stock solution (10 mM) per well was added in a specially made solubility sample plate, and then 970 μL of PBS with different pH was added to each well (pH was 4.0 and 7.4, respectively). Repeated wells were set in the test. A stir bar was added to each well that was covered with a polytetrafluoroethylene or silica gel plug. Stirring was performed at 25° C. at 1100 rpm for 2 hours. 10 μL of sample was taken from each well, and then 990 μL of water and acetonitrile mixture (including internal standard substance) was added to mix well, followed by filtering with a filter plate.
Standard treatment: 10 mM stock solution was diluted with DMSO to 300 μM, then 10 μL of compound diluent was taken, and 990 μL of water and acetonitrile mixture (including internal standard substance) was added to mix well and formulated into a standard solution with the final concentration 3 μM.
The solubility sample plate was placed in the autosampler and the LC-MS/MS method was used for analysis. The concentration of the test compound was calculated by the response value of the test compound and standard, and the concentration of the standard.

[3] = test system: zebrafish non-alcoholic fatty liver; assay: Fat reduction or elimination effect on thioacetamide-induced zebrafish non-alcoholic fatty liver (Oil Red O staining); type: in vivo; details: 100 μM; for The total optical density of liver fat: mean ± SE, n = 10; for inhibition at 100 µM: Danio rerio, read-out: Inhibition rate of liver steatosis
Description: 40 mM stock solution of test compounds 4, 5, 6, 7, 46, 67, 78, 85, 92 and 101 were prepared with DMSO, and stored in a refrigerator at −20° C. The positive control compound S-adenosylmethionine (SAM) was purchased from Aladdin Reagent (Shanghai) Co., Ltd., with the batch number F1523051, which was prepared into a 50 mM stock solution with DMSO. The control compound silymarin was purchased from Shanghai Dibai Biotechnology Co., Ltd., with the batch number EE09, which was prepared into a 40 mM stock solution with DMSO. Thioacetamide was purchased from Sigma-Aldrich, with the batch number BCBV3031, which wasprepared into a 1 M stock solution with DMSO. Oil Red O was purchased from Sigma-Aldrich, with the batch number SLBP5248V. 4% paraformaldehyde was purchased from Dingguo Biotechnology Co., Ltd., with the batch number 773001800. Propylene glycol was purchased from Sinopharm Chemical Reagent Co., Ltd., with the batch number 20170615.
The melanin allele mutant translucent Albino line zebrafish was reproduced in natural paired mating. The fish age was 3 days after fertilization, with 30 fish per experimental group.
The above zebrafish were raised in fish farming water at 28° C. (water quality: 200 mg instant sea salt was added to 1 L of reverse osmosis water, conductivity was 480-510 μS/cm; pH was 6.9-7.2; hardness was 53.7-71.6 mg/L CaCOs), the experimental animal use license number was: SYXK (Zhejiang) 2012-0171. Feeding management met the requirements of international AAALAC certification.
Three days after fertilization, the normal melanin allele mutant translucent Albino strain of zebrafish was randomly selected and placed in a six well plate with 30 fish per well (i.e. each experimental group), and then thioacetamide with the final concentration of 7 mM was used to treat zebrafish for 72 hours to establish the non-alcoholic fatty liver model.
The zebrafish were transferred to a six-well plate, with 30 fish per well (i.e., each experimental group) randomly. Non-alcoholic fatty liver model in zebrafish were induced by thioacetamide. 40 mM test compounds 4, 5, 6, 7, 46, 67, 78, 85, 92 and 101 were quantitatively transferred to a six-well plate, and diluted with water to the corresponding concentration. Test compounds 4, 5, 6 and 7 were formulated into two dose groups with final concentration of 100 μM and 200 μM, respectively; test compound 46 was formulated into a dose group with final concentration of 200 μM; test compounds 67, 78, 85, 92 and 101 were formulated into dose groups with a final concentration of 100 μM; 50 mM positive control SAM was formulated with water to a dose group with final concentration of 50 μM, and a 40 mM positive control silymarin was formulated with water to two concentration dose groups with final concentration of 100 μM and 200 μM. A normal control group (zebrafish treated with fish farming water) and a model control group were set at the same time, and the total volume of each well was 3 mL. Except for the normal control group, the other experimental groups were treated with thioacetamide for 72 hours and stained with Oil Red O. After staining, 10 zebrafish were randomly selected from each experimental group and photographed under a dissecting microscope, NIS-Elements D 3.10 advanced image processing software was used to perform image analysis and collect data, the total optical density (S) of zebrafish liver fat was statistically analyzed, and for the inhibitory effect of each experimental group on liver steatosis of zebrafishwas evaluated by the following formula, the results of statistical analysis were expressed as mean±SE: Inhibition rate of liver steatosis (%)=[S(model control group)−S(test compound group)]/[S(model control group)−S(normal control group)]×100%
Statistical analysis was performed using analysis of variance and Dunnett's T-test, and p<0.05 indicated a significant difference. […]

[4] = test system: Patients With Primary Biliary Cirrhosis; details: phase III study; cited from earlier work

SMILES	subjects with improved fibrosis after treatment [1]	solubility at 2 h ([2]; pH 4, aqueous buffer)	solubility at 2 h ([2]; pH 7.4, aqueous buffer)	Solubility in PBS buffer solution compared with silymarin (in words) [2]	Inhibition rate of liver steatosis [3]	Therapeutic effect on non-alcoholic fatty liver of zebrafish (in words) [3]	The total optical density of liver fat [3]	inhibition at 100 µM [3]	patients with serious cardiovascular adverse events [4]
Cc1cc(F)c(C(=O)Nc2cccc(-c3nncn3C(C)C)n2)cc1-n1cnc(C2CC2)c1 [GS-4997]	43%								
COc1cc(O)c2c(c1)OC(c1cc(O)c3c(c1)OC(c1ccc(O)c(OC)c1)C(CO)O3)C(O)C2 (stereo not shown) [Compound 67, 2-{8-hydroxy-3-(4-hydroxy-3-methoxyphenyl)-2-hydroxymethyl-2,3-dihydrobenzo[b][1,4]dioxan-6-yl}-7-methoxychroman-3,5-diol]		148 µM (≈ 73.9 µg/mL)	146 µM (≈ 72.9 µg/mL)	significantly higher than that of silymarin	>100*** %	significant therapeutic effects	16667 ± 469 Pixels	> 100%	
CC[C@H]1[C@@H](O)[C@@H]2[C@H](CC[C@]3(C)[C@@H]([C@H](C)CCC(=O)O)CC[C@@H]23)[C@@]2(C)CC[C@@H](O)C[C@@H]12 [Obeticholic acid]									3%
COc1cc(C2Oc3cc(C4Oc5cc(O)cc(OC)c5CC4O)cc(O)c3OC2CO)ccc1O (stereo not shown) [Compound 85, 2-{8-hydroxy-3-(4-hydroxy-3-methoxyphenyl)-2-hydroxymethyl-2,3-dihydrobenzo[b][1,4]dioxan-6-yl}-5-methoxychroman-3,7-diol]		160 µM (≈ 79.7 µg/mL)	150 µM (≈ 75 µg/mL)	significantly higher than that of silymarin	>100*** %	significant therapeutic effects	17378 ± 710 Pixels	> 100%	

From patent US11643405B2, “Compound for treatment or prevention of liver diseases” (JIANGSU ATOM BIOSCIENCE AND PHARMACEUTICAL CO., LTD., priority 2018, dated 2023)
